Source: patent US20260028354A1, “TETRAHYDRONAPHTHALENE DERIVATIVES AS ESTROGEN RECEPTOR DEGRADERS” (REGENT OF THE UNIVERSITY OF MICHIGAN, priority 2022, published 2026)

Tests used:
Assay type in all cases: cell-based
ER = ER (Homo sapiens (Human), UniProt P03372); assay: In-cell western blot analysis of ER for "B" compounds; details: 16 hours, read-out: ICW DC50
Procedure: R^T 2h, gentle shaking. Negative control: cells plus secondary antibodies (no primary antibodies); e, wash x 4 with PBS+0.05-0.1% Tween 20, gentel shaking; f, anti-rabbit-680 and anti-mouse-800 (both 1:1000 in LiCor block+0.05% Tween20, R^T 1h, gentle shaking, no light. LI-COR: 0.2% to reduce background; g, wash×4 with PBS+0.05% Tween 20, gental shaking; h, add 100 μL or 25 μL of PBS to each well and read on CLX plate reader. The relative ER percentage in treated cells were obtained by comparing the values of treated wells to those in untreated and DMSO-treated wells as 100%.

[1] = Western blot analysis for "B" compounds; details: read-out: Traditional Western Degradation Potency (DC50)
How it was run: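 Target protein levels given as relative mean band intensity over GAPDH from scanned immunoblots. Lysates of treated cells in RIPA buffer, equalized by BCA, separated on 10% gels and transferred to PVDF.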

[2] = Cell growth assay (WST-8) for "B" compounds; details: T47D, T47D cell line; read-out: Cell growth Inhibition in T47D cell line IC50
Procedure: Cell Growth Assay. The cells were seeded at 1500/well in 96 well plates overnight. One day after the seeding, they were treated with indicated doses of compounds respectively, 4 days after the compound treatment, 10% WST-8 reagent was added to the culture medium and incubate in a CO2 incubator at 37° C. for 2.5 hours. Before reading, the plate was mixed gently on an orbital shaker for one minute to ensure homogeneous distribution of color. The absorbance was measured of each sample using a microplate reader at a wavelength of 450 nm. The relative absorbance was calculated against the vehicle control from three individually repeats.

Chain of ER (P03372 whole entry): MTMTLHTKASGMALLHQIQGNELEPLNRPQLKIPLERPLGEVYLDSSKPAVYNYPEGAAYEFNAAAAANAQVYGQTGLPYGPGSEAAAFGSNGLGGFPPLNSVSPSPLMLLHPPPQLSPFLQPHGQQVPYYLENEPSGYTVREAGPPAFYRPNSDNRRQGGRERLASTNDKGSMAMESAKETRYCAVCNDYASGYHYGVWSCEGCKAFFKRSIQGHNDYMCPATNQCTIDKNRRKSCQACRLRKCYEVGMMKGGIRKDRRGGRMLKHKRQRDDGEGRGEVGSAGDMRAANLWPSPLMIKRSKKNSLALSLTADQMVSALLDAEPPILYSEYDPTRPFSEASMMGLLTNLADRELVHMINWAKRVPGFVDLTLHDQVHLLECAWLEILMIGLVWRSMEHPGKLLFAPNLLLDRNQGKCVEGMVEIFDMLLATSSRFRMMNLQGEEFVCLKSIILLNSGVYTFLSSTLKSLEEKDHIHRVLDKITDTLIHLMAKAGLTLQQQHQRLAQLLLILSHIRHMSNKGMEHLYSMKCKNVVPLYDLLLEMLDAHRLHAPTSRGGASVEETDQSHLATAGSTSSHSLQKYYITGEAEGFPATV

Row | Structure (SMILES) | DC50 (ER) | DC50 [1] | IC50 [2]
1 | O=C1CCC(N2Cc3cc4c(cc3C2=O)OC[C@@H]2CN(CC3CC5CN(c6ccc([C@@H]7c8ccc(O)cc8CC[C@@H]7c7ccccc7)cc6)CC5C3)CCN42)C(=O)N1 (mixture of isomers) [Compound B321, 3-((4aS)-3-(((3aRS,6aSR)-2-(4-((1R,2S)-6-hydroxy-2-phenyl-1,2,3,4-tetrahydronaphthalen-1-yl)phenyl)octahydrocyclopenta[c]pyrrol-5-yl)methyl)-8-oxo-1,2,3,4,4a,5,8,10-octahydro-9H-pyrazino[1′,2′:4,5][1,4]oxazino[2,3-f]isoindol-9-yl)piperidine-2,6-dione] | > 100 nM |  | 
2 | O=C1CCC(N2Cc3cc4c(cc3C2=O)OC[C@@H]2CN(CC3CCN(c5ccc([C@@H]6c7ccc(O)cc7CC[C@@H]6c6ccccc6)cc5)CC3)CCN42)C(=O)N1 (stereo partly drawn) [Compound B135, 3-((S)-3-((1-(4-((1R,2S)-6-hydroxy-2-phenyl-1,2,3,4-tetrahydronaphthalen-1-yl)phenyl)piperidin-4-yl)methyl)-8-oxo-1,2,3,4,4a,5,8,10-octahydro-9H-pyrazino[1′,2′:4,5][1,4]oxazino[2,3-f]isoindol-9-yl)piperidine-2,6-dione] |  | 10 to 100 nM | 1 to 10 nM
3 | COc1c2c(cc3c1C(=O)N(C1CCC(=O)NC1=O)C3=O)CN(CC(=O)N1CCC3(CC1)CCN(c1ccc([C@@H]4c5ccc(O)cc5CC[C@@H]4c4ccccc4)cc1)CC3)C2 (stereo partly drawn) [Compound B136, 2-(2,6-dioxopiperidin-3-yl)-6-(2-(9-(4-((1R,2S)-6-hydroxy-2-phenyl-1,2,3,4-tetrahydronaphthalen-1-yl)phenyl)-3,9-diazaspiro[5.5]undecan-3-yl)-2-oxoethyl)-4-methoxy-6,7-dihydropyrrolo[3,4-f]isoindole-1,3(2H,5H)-dione] |  | 10 to 100 nM | 1 to 10 nM
4 | O=C1CCC(N2C(=O)c3cc4c(cc3C2=O)CN(CC(=O)N2CCC3(CC2)CCN(c2ccc([C@H]5c6ccc7[nH]ncc7c6CC[C@H]5c5ccccc5)cc2)CC3)C4)C(=O)N1 (stereo partly drawn) [Compound B138, 2-(2,6-dioxopiperidin-3-yl)-6-(2-oxo-2-(9-(4-((6S,7R)-7-phenyl-6,7,8,9-tetrahydro-3H-benzo[e]indazol-6-yl)phenyl)-3,9-diazaspiro[5.5]undecan-3-yl)ethyl)-6,7-dihydropyrrolo[3,4-f]isoindole-1,3(2H,5H)-dione] |  | > 100 nM | 1 to 10 nM
5 | O=C1CCC(N2Cc3cc4c(cc3C2=O)OC[C@@H]2CN(CC(=O)N3C[C@@H]5CN(c6ccc([C@@H]7c8ccc(O)cc8CC[C@@H]7c7ccccc7)cc6)C[C@@H]5C3)CCN42)C(=O)N1 (stereo partly drawn) [Compound B156, 3-((S)-3-(2-((3aR,6aS)-5-(4-((1R,2S)-6-hydroxy-2-phenyl-1,2,3,4-tetrahydronaphthalen-1-yl)phenyl)hexahydropyrrolo[3,4-c]pyrrol-2(1H)-yl)-2-oxoethyl)-8-oxo-1,2,3,4,4a,5,8,10-octahydro-9H-pyrazino[1′,2′:4,5][1,4]oxazino[2,3-f]isoindol-9-yl)piperidine-2,6-dione] | > 100 nM |  | 
6 | O=C1CCC(N2Cc3cc4c(cc3C2=O)OC[C@@H]2CN(C(=O)CN3CCC5(CC3)CCN(c3ccc([C@@H]6c7ccc(O)cc7CC[C@@H]6c6ccccc6)cn3)CC5)CCN42)C(=O)N1 (stereo partly drawn) [Compound B158, 3-((S)-3-(2-(9-(5-((1S,2S)-6-hydroxy-2-phenyl-1,2,3,4-tetrahydronaphthalen-1-yl)pyridin-2-yl)-3,9-diazaspiro[5.5]undecan-3-yl)acetyl)-8-oxo-1,2,3,4,4a,5,8,10-octahydro-9H-pyrazino[1′,2′:4,5][1,4]oxazino[2,3-f]isoindol-9-yl)piperidine-2,6-dione] | 10 to 100 nM |  | 
7 | O=C1CCC(N2Cc3cc4c(cc3C2=O)OC[C@@H]2CN(CC(=O)N3CCC5(CC3)CN(c3ccc([C@@H]6c7ccc(O)cc7CC[C@@H]6c6ccccc6)cc3)C5)CCN42)C(=O)N1 (stereo partly drawn) [Compound B160, 3-((S)-3-(2-(2-(4-((1R,2S)-6-hydroxy-2-phenyl-1,2,3,4-tetrahydronaphthalen-1-yl)phenyl)-2,7-diazaspiro[3.5]nonan-7-yl)-2-oxoethyl)-8-oxo-1,2,3,4,4a,5,8,10-octahydro-9H-pyrazino[1′,2′:4,5][1,4]oxazino[2,3-f]isoindol-9-yl)piperidine-2,6-dione] | < 10 nM |  | 
8 | O=C1CCC(N2Cc3cc4c(cc3C2=O)OC[C@@H]2CN(C(=O)CN3CCC5(CC3)CN(c3ccc([C@@H]6c7ccc(O)cc7CC[C@@H]6c6ccccc6)cc3)C5)CCN42)C(=O)N1 (stereo partly drawn) [Compound B161, 3-((S)-3-(2-(2-(4-((1R,2S)-6-hydroxy-2-phenyl-1,2,3,4-tetrahydronaphthalen-1-yl)phenyl)-2,7-diazaspiro[3.5]nonan-7-yl)acetyl)-8-oxo-1,2,3,4,4a,5,8,10-octahydro-9H-pyrazino[1′,2′:4,5][1,4]oxazino[2,3-f]isoindol-9-yl)piperidine-2,6-dione] | < 10 nM |  | 
9 | CN1C[C@@H]2CN(C(=O)CN3CC4(CCN(c5ccc([C@@H]6c7ccc(O)cc7CC[C@@H]6c6ccccc6)cc5)CC4)C3)CCN2c2cc3c(cc21)C(=O)N(C1CCC(=O)NC1=O)C3 (stereo partly drawn) [Compound B162, 3-((R)-3-(2-(7-(4-((1R,2S)-6-hydroxy-2-phenyl-1,2,3,4-tetrahydronaphthalen-1-yl)phenyl)-2,7-diazaspiro[3.5]nonan-2-yl)acetyl)-6-methyl-8-oxo-2,3,4,4a,5,6,8,10-octahydropyrazino[1,2-a]pyrrolo[3,4-g]quinoxalin-9(1H)-yl)piperidine-2,6-dione] | 10 to 100 nM |  | 
10 | O=C1CCC(N2Cc3c(ccc4c3OCC43CCN(C(=O)CN4CCC5(C4)CN(c4ccc([C@@H]6c7ccc(O)cc7CC[C@@H]6c6ccccc6)cc4)C5)CC3)C2=O)C(=O)N1 (stereo partly drawn) [Compound B169, 3-(1′-(2-(2-(4-((1R,2S)-6-hydroxy-2-phenyl-1,2,3,4-tetrahydronaphthalen-1-yl)phenyl)-2,6-diazaspiro[3.4]octan-6-yl)acetyl)-6-oxo-6,8-dihydro-2H,7H-spiro[furo[2,3-e]isoindole-3,4′-piperidin]-7-yl)piperidine-2,6-dione] | < 10 nM |  | 
11 | O=C1CCC(N2Cc3c(ccc4c3OC[C@H]3CN(CC5CC6CN(c7ccc([C@@H]8c9ccc(O)cc9CC[C@@H]8c8ccccc8)cc7)CC6C5)CCN43)C2=O)C(=O)N1 (stereo partly drawn) [Compound B320, 3-((5aR)-7-(((3aRS,6aSR)-2-(4-((1R,2S)-6-hydroxy-2-phenyl-1,2,3,4-tetrahydronaphthalen-1-yl)phenyl)octahydrocyclopenta[c]pyrrol-5-yl)methyl)-1-oxo-1,3,5,5a,6,7,8,9-octahydro-2H-pyrazino[1′,2′:4,5][1,4]oxazino[2,3-c]isoindol-2-yl)piperidine-2,6-dione] | > 100 nM |  | 
12 | O=C1CCC(N2Cc3c(ccc4c3OC[C@H]3CN(C[C@H]5CC[C@H](Nc6ccc([C@@H]7c8ccc(O)cc8CC[C@@H]7c7ccccc7)cc6)CC5)CCN43)C2=O)C(=O)N1 (stereo partly drawn) [Compound B322, 3-((R)-7-(((1R,4R)-4-((4-((1R,2S)-6-hydroxy-2-phenyl-1,2,3,4-tetrahydronaphthalen-1-yl)phenyl)amino)cyclohexyl)methyl)-1-oxo-1,3,5,5a,6,7,8,9-octahydro-2H-pyrazino[1′,2′:4,5][1,4]oxazino[2,3-e]isoindol-2-yl)piperidine-2,6-dione] | < 10 nM |  | 
